# pIC50: −log10 of the molar value.
# Target: T1, glutaminyl cyclase (QC; human recombinant glutaminyl peptide cyclotransferase) (Homo sapiens, UniProt Q16769)
# T1 construct: gene QPCT
# Test: PGPEP1-coupled fluorescence assay with H-Gln-AMC substrate, recombinant human QC
# Type: biochemical
# T1 sequence (Q16769 29-361): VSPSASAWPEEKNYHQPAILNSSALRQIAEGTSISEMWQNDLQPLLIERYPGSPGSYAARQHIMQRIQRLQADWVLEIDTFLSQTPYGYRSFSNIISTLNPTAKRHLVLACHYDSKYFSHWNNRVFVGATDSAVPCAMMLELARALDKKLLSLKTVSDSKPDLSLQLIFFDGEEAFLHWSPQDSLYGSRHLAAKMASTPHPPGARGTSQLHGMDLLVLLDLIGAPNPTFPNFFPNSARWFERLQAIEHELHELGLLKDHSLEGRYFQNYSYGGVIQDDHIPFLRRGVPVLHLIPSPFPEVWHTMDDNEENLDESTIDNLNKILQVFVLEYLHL
smiles,measurement,value
"O=C1NC[C@H](c2ccc(OCCCF)cc2)N1c1ccc2[nH]cnc2c1 [compound 8, S-[19F]PB0822]",pIC50,7.25

# Reference: PMC11129349, “Synthesis and Evaluation of a Novel PET Radioligand for Imaging Glutaminyl Cyclase Activity as a Biomarker for Detecting Alzheimer’s Disease” (ACS Sensors, 2024)
